# Reference: patent US20140005163A1 (NOVARTIS AG, priority 2010, published 2014)
# Like-named read-outs stand apart in the source and are kept apart here.
# Assays:
# Solubility at pH 6.8 = format: physicochemical
# Summary of the method: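 Following the procedure of Zhou et al. (2007), compound solubility was determined at pH 6.8.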
# mTOR = biological target: T1, mTOR (Homo sapiens, UniProt P42345); assay: Biochemical assay for m-TOR by TR-FRET; details: 8 μM ATP, 400 nM GFP-4EBP1, 0.5 nM mTOR
# T1 construct: purchased Invitrogen Corporation (Carlsbad/CA, USA) PV4753
# T1 sequence (P42345 1360-2549 limits assumed): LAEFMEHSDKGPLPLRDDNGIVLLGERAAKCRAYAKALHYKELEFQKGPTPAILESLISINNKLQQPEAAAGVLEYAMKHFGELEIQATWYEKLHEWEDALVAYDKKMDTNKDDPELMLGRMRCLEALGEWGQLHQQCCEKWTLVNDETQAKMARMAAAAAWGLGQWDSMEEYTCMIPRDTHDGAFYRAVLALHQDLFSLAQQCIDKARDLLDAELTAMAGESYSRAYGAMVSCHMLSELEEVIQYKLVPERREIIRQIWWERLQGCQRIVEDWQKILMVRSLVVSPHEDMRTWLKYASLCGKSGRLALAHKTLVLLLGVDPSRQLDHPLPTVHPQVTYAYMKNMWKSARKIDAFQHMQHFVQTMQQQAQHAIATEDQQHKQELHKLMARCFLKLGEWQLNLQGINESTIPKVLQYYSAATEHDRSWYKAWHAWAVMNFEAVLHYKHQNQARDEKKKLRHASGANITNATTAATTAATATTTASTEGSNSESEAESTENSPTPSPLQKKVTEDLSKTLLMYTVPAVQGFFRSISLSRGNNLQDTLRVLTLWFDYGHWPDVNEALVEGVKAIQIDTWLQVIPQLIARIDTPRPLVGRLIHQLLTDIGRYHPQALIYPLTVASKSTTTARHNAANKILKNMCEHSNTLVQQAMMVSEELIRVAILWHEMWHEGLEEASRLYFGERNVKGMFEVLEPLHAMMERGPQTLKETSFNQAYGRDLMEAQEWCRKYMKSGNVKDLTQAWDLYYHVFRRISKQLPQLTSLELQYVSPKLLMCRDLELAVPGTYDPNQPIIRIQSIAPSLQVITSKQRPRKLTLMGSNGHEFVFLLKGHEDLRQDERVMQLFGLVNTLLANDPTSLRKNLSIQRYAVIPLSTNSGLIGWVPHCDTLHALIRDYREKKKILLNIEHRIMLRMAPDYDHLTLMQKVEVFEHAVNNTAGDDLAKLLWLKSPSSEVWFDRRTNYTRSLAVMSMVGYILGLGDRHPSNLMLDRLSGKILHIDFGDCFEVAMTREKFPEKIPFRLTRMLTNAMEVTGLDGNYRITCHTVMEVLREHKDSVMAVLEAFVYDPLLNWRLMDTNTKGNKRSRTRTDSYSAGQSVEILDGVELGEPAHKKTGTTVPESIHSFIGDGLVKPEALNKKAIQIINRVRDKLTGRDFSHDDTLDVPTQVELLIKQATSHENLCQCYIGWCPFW
# Summary of the method: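 TR-FRET detection of pThr46 on GFP-4EBP1 (400 nM final) using Tb3+-labelled antibody (0.5 nM), added with EDTA to stop reactions. Reactions ran at rt with 0.5 nM mTOR and 8 μM ATP (final) in HEPES pH 7.5 buffer containing 10 mM MnCl2.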
# [1] = tested on: PKB Ser473 phosphorylation in Rat1-myr-HA-p110 delta cells; assay: Reverse protein array assay, PKB Ser473 phosphorylation in Rat1-myr-p110 delta cells; format: cell-based; details: read-out: p-PKB IC50
# Summary of the method: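 Rat1 cells expressing myristoylated HA-tagged p110 alpha, beta or delta were plated for at least 20 h, then exposed to 8-step serial compound dilutions (0.2% DMSO final) for 30 min at 37 °C. Lysates were spotted at four dilutions on protein microarrays, and relative fluorescence intensity of phospho-Ser473 PKB was calculated.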
# [2] = pH 6.8, aqueous buffer, thermodynamic from solid, read-out: solubility
solubility (Solubility at pH 6.8; [2]),IC50 (mTOR),IC50 [1],solubility (Solubility at pH 6.8; pH 6.8),Compound
16 µg/mL,24 nM,132 nM,–,"CNC(=O)c1cc(-c2ccc3ncc4c(c3c2)n(-c2cn(C(C)C)nc2C)c(=O)n4C)cnc1N [Example 224.2, 2-Amino-5-[1-(1-isopropyl-3-methyl-1H-pyrazol-4-yl)-3-methyl-2-oxo-2,3-dihydro-1H-imidazo[4,5-c]quinolin-8-yl]-N-methyl-nicotinamide]"
22 µg/mL,10 nM,23 nM,–,"COc1ncc(-c2ccc3ncc4c(c3c2)n(-c2cn(C)nc2C)c(=O)n4C)c(OC)n1 [Example 234.2, 8-(2,4-Dimethoxy-pyrimidin-5-yl)-1-(1,3-dimethyl-1H-pyrazol-4-yl)-3-methyl-1,3-dihydro-imidazo[4,5-c]quinolin-2-one]"
–,< 3 nM,13 nM,2 µg/mL,"CCn1cc(-n2c(=O)n(C)c3cnc4ccc(-c5cnc(NC)nc5OC)cc4c32)c(C)n1 [Example 236, 1-(1-Ethyl-3-methyl-1H-pyrazol-4-yl)-8-(4-methoxy-2-methylamino-pyrimidin-5-yl)-3-methyl-1,3-dihydro-imidazo[4,5-c]quinolin-2-one]"
16 µg/mL,30 nM,29 nM,–,"COc1ccc(-c2ccc3ncc4[nH]c(=O)n(-c5cn(C)nc5C)c4c3n2)cc1OC [Example 249, 8-(3,4-dimethoxy-phenyl)-1-(1,3-dimethyl-1H-pyrazol-4-yl)-1,3-dihydro-1,3,5,9-tetraaza-cyclopenta[a]naphthalen-2-one]"
5 µg/mL,135 nM,118 nM,–,"COc1ccc(-c2ccc3ncc4c(c3n2)n(-c2cn(C)nc2C)c(=O)n4C)cc1OC [Example 250, 8-(3,4-Dimethoxy-phenyl)-1-(1,3-dimethyl-1H-pyrazol-4-yl)-3-methyl-1,3-dihydro-1,3,5,9-tetraaza-cyclopenta[a]naphthalen-2-one]"
